Consider 6 molecules from ChEMBL document CHEMBL3525936 (Drug Metab Dispos, 2012).

In series [1] the test system is Liver microsome. The series can be described thus: Drug level in rat liver microsomes assessed as compound formation treated with 2 uM [14C]brivanib alaninate after 60 mins by LC/MS method in presence of 1 mM NADPH. In kind it is ADME. Particulars: 1 h. On the technique in general: Microsomes from liver hold many membrane-bound enzymes, among them those of drug oxidation.

Series [2] is described as follows: Drug level in monkey liver microsomes assessed as compound formation treated with 2 uM [14C]brivanib alaninate after 60 mins by LC/MS method in presence of 1 mM NADPH. Particulars: rhesus monkey, 1 h. In kind it is ADME, Macaca mulatta.
Series [3] relates to Liver microsome. The series can be described thus: Drug level in human liver microsomes assessed as compound formation treated with 2 uM [14C]brivanib alaninate after 60 mins by LC/MS method in presence of 1 mM NADPH. Particulars: 1 h. Type of series: ADME.
Series [4] relates to Liver microsome. Briefly: Drug metabolism in rat liver microsomes assessed as 1-(4-(4-fluoro-2-methyl-1H-indol-5-yloxy)-5-methylpyrrolo[1,2-f][1,2,4]triazin-6-yloxy)propan-2-one formation at 2 uM after 60 mins by LC/MS method in presence of 1 mM NADPH. In kind it is ADME.
Series [5] can be described thus: Drug metabolism in monkey liver microsomes assessed as 1-(4-(4-fluoro-2-methyl-1H-indol-5-yloxy)-5-methylpyrrolo[1,2-f][1,2,4]triazin-6-yloxy)propan-2-one formation at 2 uM after 60 mins by LC/MS method in presence of 1 mM NADPH. Type of series: ADME, Macaca mulatta. Particulars: rhesus monkey.
The subject of series [6] is Liver microsome. The series can be described thus: Drug metabolism in human liver microsomes assessed as 1-(4-(4-fluoro-2-methyl-1H-indol-5-yloxy)-5-methylpyrrolo[1,2-f][1,2,4]triazin-6-yloxy)propan-2-one formation at 2 uM after 60 mins by LC/MS method in presence of 1 mM NADPH. In kind it is ADME.
Series [7] relates to Liver microsome. The series can be described thus: Drug metabolism in rat liver microsomes assessed as 1-(4-(4-fluoro-2-methyl-1H-indol-5-yloxy)-5-methylpyrrolo[1,2-f][1,2,4]triazin-6-yloxy)propan-2-one formation at 2 uM after 60 mins by LC/MS method in absence of NADPH. Type of series: ADME.
Series [8] can be described thus: Drug metabolism in monkey liver microsomes assessed as 1-(4-(4-fluoro-2-methyl-1H-indol-5-yloxy)-5-methylpyrrolo[1,2-f][1,2,4]triazin-6-yloxy)propan-2-one formation at 2 uM after 60 mins by LC/MS method in absence of NADPH. In kind it is ADME, Macaca mulatta. Particulars: rhesus monkey.
Series [9] has as its system Liver microsome. The series can be described thus: Drug metabolism in human liver microsomes assessed as 1-(4-(4-fluoro-2-methyl-1H-indol-5-yloxy)-5-methylpyrrolo[1,2-f][1,2,4]triazin-6-yloxy)propan-2-one formation at 2 uM after 60 mins by LC/MS method in absence of NADPH. In kind it is ADME.
Series [10] can be described thus: Drug metabolism in monkey liver microsomes assessed as (R)-1-(4-(4-fluoro-2-methyl-1H-indol-5-yloxy)-5-methylpyrrolo[1,2-f][1,2,4]triazin-6-yloxy)propan-2-ol formation at 10 uM after 60 mins by LC/MS analysis in absence of NADPH. In kind it is ADME, Macaca mulatta. To be noted: rhesus monkey.
The test system of series [11] is Liver microsome. The series can be described thus: Drug metabolism in human liver microsomes assessed as (R)-1-(4-(4-fluoro-2-methyl-1H-indol-5-yloxy)-5-methylpyrrolo[1,2-f][1,2,4]triazin-6-yloxy)propan-2-ol formation at 10 uM after 60 mins by LC/MS analysis in absence of NADPH. Type of series: ADME.
For series [12], the system named is Liver microsome. The series can be described thus: Drug metabolism in rat liver microsomes assessed as (R)-1-(4-(4-fluoro-2-methyl-1H-indol-5-yloxy)-5-methylpyrrolo[1,2-f][1,2,4]triazin-6-yloxy)propan-2-ol formation at 10 uM after 60 mins by LC/MS analysis in absence of NADPH. In kind it is ADME.
Series [13] concerns Liver cytosol. Briefly: Drug metabolism in human liver cytosol assessed as sulfate metabolite formation by Michaelis-Menten equation […]. In kind it is ADME.
Series [14] has as its system HUVEC. Briefly: Inhibition of VEGF-stimulated HUVEC cell proliferation assessed as 5-bromo-2-deoxyuridine incorporation. In kind it is functional, cell-based. To be noted: Homo sapiens.
Series [15] concerns HUVEC. Briefly: Inhibition of FGF-stimulated HUVEC cell proliferation assessed as 5-bromo-2-deoxyuridine incorporation. In kind it is functional, cell-based. To be noted: Homo sapiens.
Series [16] has as its system HUVEC. The series can be described thus: Inhibition of VEGF/FGF-stimulated HUVEC cell proliferation assessed as 5-bromo-2-deoxyuridine incorporation. Type of series: functional, cell-based. Particulars: Homo sapiens.
Series [17] relates to Liver cytosol. Briefly: Drug metabolism in rat liver cytosol assessed as sulfate metabolite formation by Michaelis-Menten equation […]. In kind it is ADME.
A short description of series [18]: Drug metabolism in monkey liver cytosol assessed as sulfate metabolite formation by Michaelis-Menten equation […]. Type of series: ADME, Macaca mulatta. To be noted: rhesus monkey.
The nature of series [19]: Cmax in Sprague-Dawley rat plasma at 60 mg/kg, po administered as single dose via gavage by LC/MS analysis. On the set-up: dose 60 mg/kg, route oral. In kind it is ADME, organism-based.
Series [20] can be described thus: Tmax in Sprague-Dawley rat plasma at 60 mg/kg, po administered as single dose via gavage by LC/MS analysis. Type of series: ADME, organism-based. Also on record: dose 60 mg/kg, route oral.
Series [21] is described as follows: AUC (0 to t) in Sprague-Dawley rat plasma at 60 mg/kg, po administered as single dose via gavage by LC/MS analysis. In kind it is ADME, organism-based. Also on record: dose 60 mg/kg, route oral.
Series [22] can be described thus: Cmax in cynomolgus monkey plasma at 10 mg/kg, po administered as single dose via gavage by LC/MS analysis. In kind it is ADME, organism-based, Macaca fascicularis. Also on record: dose 10 mg/kg, route oral.
Series [23] in a line: Tmax in cynomolgus monkey plasma at 10 mg/kg, po administered as single dose via gavage by LC/MS analysis. Type of series: ADME, organism-based, Macaca fascicularis. Also on record: dose 10 mg/kg, route oral.
Series [24] can be described thus: AUC (0 to t) in cynomolgus monkey plasma at 10 mg/kg, po administered as single dose via gavage by LC/MS analysis. In kind it is ADME, organism-based, Macaca fascicularis. On the set-up: dose 10 mg/kg, route oral.
Series [25] can be described thus: Cmax in healthy human plasma at 400 mg, po administered as single dose via gavage by LC/MS analysis. Type of series: ADME, organism-based. Also on record: dose 400 mg, route oral.
Series [26] is described as follows: Tmax in healthy human plasma at 400 mg, po administered as single dose via gavage by LC/MS analysis. In kind it is ADME, organism-based.
Series [27] in a line: AUC (0 to t) in healthy human plasma at 400 mg, po administered as single dose via gavage by LC/MS analysis. Type of series: ADME, organism-based.

In the case of `CC(=O)COc1cn2ncnc(Oc3ccc4[nH]c(C)cc4c3F)c2c1C`, the Drug metabolism result in [1], in series [2] and in series [3] was “metabolite_detected” each time.
As to `Cc1cc2c(F)c(Oc3n[14cH]nn4cc(OC[C@@H](C)OC(=O)[C@H](C)N)c(C)c34)ccc2[nH]1`, the Drug metabolism result in [4] is on record as “metabolite_detected”; in series [5], “metabolite_detected”; in series [6], “metabolite_detected”; in series [7], “metabolite_not_detected”; in [8], “metabolite_not_detected”; in [9] it was “metabolite_not_detected”.
With `Cc1c(OC[C@@H](C)O)cn2ncnc(Oc3ccc4[nH]c(C(=O)O)cc4c3F)c12`, the Drug metabolism result in series [1], in series [2] and in [3] was “metabolite_detected” each time.
In the case of `Cc1c(OC[C@@H](C)O)cn2ncnc(Oc3ccc4[nH]c(CO)cc4c3F)c12`, the Drug metabolism result in series [1], in series [2] and in series [3] was “metabolite_detected” in each case.
As usually defined, the Km is the concentration of substrate that gives half-maximal velocity. As a reminder, the IC50 is the concentration at which inhibition is half-maximal. Consider `Cc1cc2c(F)c(Oc3ncnn4cc(OC[C@H](C)O)c(C)c34)ccc2[nH]1`, for which the Drug metabolism entry in [10], in [11] and in series [12] was “metabolite_not_detected” throughout. In addition, the Km in [13], in series [17] and in [18] was 700 nM throughout. Further, the IC50 in series [14] stood at 687 nM; in series [15] it was 1010 nM; in series [16], 807 nM.
The term Cmax denotes the peak of the concentration-time curve. One may read the Tmax as the time at which the peak concentration occurs. One may read the AUC(0-t) as the area under the concentration-time curve up to a stated or last time point. With `Cc1cc2c(F)c(Oc3ncnn4cc(OC[C@@H](C)O)c(C)c34)ccc2[nH]1` [BRIVANIB], the highest concentration (Cmax) amounted to 3500 ng/mL in series [19], 1400 ng/mL in series [22] and 3500 ng/mL in [25]. Also, the Tmax stood at 1 h in [20], 1 h in series [23] and 2 h in [26]. Further, the results for the AUC(0-t) in [21], in [24] and in series [27] were 7600 ng·h/mL, 6800 ng·h/mL and 21800 ng·h/mL, respectively. In addition, the Km in series [13], in series [17] and in series [18] was 700 nM in each case. The IC50 in [14] is 618 nM; in [15], 695 nM; in series [16], 841 nM.
